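96-well plates; 48 h exposure; 5 concentrations. Endpoints by linear interpolation between flanking doses. Not reached: highest tested concentration assigned. Here, GI50 denotes the concentration required for 50% inhibition of growth.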 Active and inactive are the calls of the source. No stated cut-off is given here; in the data, active = GI50 up to about 1.1 µM and inactive = higher.
Tests used:
Experiment in all cases: NCI-60 cell line screen, 48 h
[1] = tested on: A498
[2] = tested on: COLO 205
[3] = tested on: DU-145
[4] = tested on: EKVX
[5] = tested on: HCT-15
[6] = tested on: KM12
[7] = tested on: MCF7
[8] = tested on: MOLT-4
[9] = tested on: Malme-3M
[10] = tested on: NCI-H23
[11] = tested on: OVCAR-3
[12] = tested on: OVCAR-4
[13] = tested on: OVCAR-8
[14] = tested on: PC-3
[15] = tested on: SK-MEL-28
[16] = tested on: SK-MEL-5
[17] = tested on: SK-OV-3
[18] = tested on: SN12C
[19] = tested on: SW-620
[20] = tested on: UO-31

For `O=C(O)C(Cc1ccccc1)Cc1ccccc1`, the GI50 [1] was > 100 µM (inactive), the GI50 [2] was > 100 µM (inactive) and the GI50 [3] was > 100 µM (inactive). For the same compound, the GI50 [4] was > 100 µM (inactive), the GI50 [5] was greater than 100 µM and the GI50 [6] was > 100 µM (inactive). The GI50 [7] was > 100 µM (inactive), the GI50 [8] was > 100 µM (inactive) and the GI50 [9] was > 100 µM (inactive). For the same compound, the GI50 [10] was > 100 µM (inactive), the GI50 [11] was > 100 µM (inactive) and the GI50 [12] was > 100 µM (inactive). For the same compound, the GI50 [13] was > 100 µM (inactive), the GI50 [14] was > 100 µM (inactive) and the GI50 [15] was > 100 µM (inactive). The GI50 [16] was > 100 µM (inactive), the GI50 [17] was > 100 µM (inactive) and the GI50 [18] was > 100 µM (inactive). The GI50 [19] was > 100 µM (inactive) and the GI50 [20] was > 100 µM (inactive).
In the case of `CC(=O)NCCCCN(CCCNC(C)=O)C(=O)OCc1ccccc1`, the GI50 [1] is reported as > 100 µM (inactive), the GI50 [2] is reported as > 100 µM (inactive) and the GI50 [3] is reported as > 100 µM (inactive). The GI50 [4] was > 100 µM (inactive), the GI50 [5] was greater than 100 µM and the GI50 [6] was > 100 µM (inactive). For the same compound, the GI50 [7] was > 100 µM (inactive), the GI50 [8] was > 100 µM (inactive) and the GI50 [9] was > 100 µM (inactive). For the same compound, the GI50 [10] was > 100 µM (inactive), the GI50 [11] was > 100 µM (inactive) and the GI50 [12] was > 100 µM (inactive). For the same compound, the GI50 [13] was > 100 µM (inactive), the GI50 [14] was > 100 µM (inactive) and the GI50 [15] was > 100 µM (inactive). For the same compound, the GI50 [16] was > 100 µM (inactive), the GI50 [17] was > 100 µM (inactive) and the GI50 [18] was > 100 µM (inactive). The GI50 [19] was > 100 µM (inactive) and the GI50 [20] was 64.3 µM (inactive).
For `O=S1(=O)CCN(c2ccccc2CC(c2c[nH]c3ccccc23)c2c[nH]c3ccccc23)CC1`, the GI50 [1] was 10 µM (inactive), the GI50 [2] was 3.03 µM (inactive) and the GI50 [3] was 7.43 µM (inactive). For the same compound, the GI50 [4] was 8.49 µM (inactive), the GI50 [5] was 4.94 µM and the GI50 [6] was 3.9 µM (inactive). For the same compound, the GI50 [7] was 3.66 µM (inactive), the GI50 [8] was 2.33 µM (inactive) and the GI50 [9] was 11.5 µM (inactive). The GI50 [10] was 6.67 µM (inactive), the GI50 [11] was 5.53 µM (inactive) and the GI50 [12] was 7.91 µM (inactive). For the same compound, the GI50 [13] was 8.55 µM (inactive), the GI50 [14] was 3.64 µM (inactive) and the GI50 [15] was 8.73 µM (inactive). For the same compound, the GI50 [16] was 6.61 µM (inactive), the GI50 [17] was 8.67 µM (inactive) and the GI50 [18] was 5.02 µM (inactive). The GI50 [19] was 3.92 µM (inactive) and the GI50 [20] was 7.41 µM (inactive).
`O=P1(C(O)/C=C/c2ccccc2)N(Cc2ccccc2)[C@@H]2CCCC[C@H]2N1Cc1ccccc1` (stereo not given in full) was tested, and the GI50 [1] was 3.02 µM (inactive), the GI50 [2] was 2.42 µM (inactive) and the GI50 [3] was 12.9 µM (inactive). For the same compound, the GI50 [4] was 6.7 µM (inactive), the GI50 [5] was 6.14 µM and the GI50 [6] was 4.66 µM (inactive). For the same compound, the GI50 [7] was 3.24 µM (inactive), the GI50 [8] was 2.93 µM (inactive) and the GI50 [9] was 2.98 µM (inactive). For the same compound, the GI50 [10] was 4.26 µM (inactive), the GI50 [11] was 6.64 µM (inactive) and the GI50 [12] was 5.38 µM (inactive). The GI50 [13] was 3.74 µM (inactive), the GI50 [14] was 3.14 µM (inactive) and the GI50 [15] was 11.2 µM (inactive). The GI50 [16] was 4.58 µM (inactive), the GI50 [17] was 24 µM (inactive) and the GI50 [18] was 3.32 µM (inactive). For the same compound, the GI50 [19] was 6.87 µM (inactive) and the GI50 [20] was 4.55 µM (inactive).
In the case of `c1cc2n(n1)CCN2`, the GI50 [1] is reported as 1150 µM (inactive), the GI50 [2] is reported as 3680 µM (inactive) and the GI50 [3] is reported as 3320 µM (inactive). The GI50 [4] was 1770 µM (inactive), the GI50 [5] was 2140 µM and the GI50 [6] was 1810 µM (inactive). For the same compound, the GI50 [7] was 828 µM (inactive), the GI50 [8] was 348 µM (inactive) and the GI50 [9] was 3000 µM (inactive). For the same compound, the GI50 [10] was 1060 µM (inactive), the GI50 [11] was 2280 µM (inactive) and the GI50 [12] was 5550 µM (inactive). The GI50 [13] was 875 µM (inactive), the GI50 [14] was 1160 µM (inactive) and the GI50 [15] was 7740 µM (inactive). The GI50 [16] was 847 µM (inactive), the GI50 [17] was 3040 µM (inactive) and the GI50 [18] was 1240 µM (inactive). The GI50 [19] was 3430 µM (inactive) and the GI50 [20] was 1320 µM (inactive).
With `Cc1cccc(/C=N/NC(=S)N(C)CCc2ccccn2)n1` the GI50 [1] was 0.285 µM (active), the GI50 [2] was 0.183 µM (active) and the GI50 [3] was 0.236 µM (active). For the same compound, the GI50 [4] was 0.391 µM (active), the GI50 [5] was 0.196 µM and the GI50 [6] was 0.687 µM (active). The GI50 [7] was 0.42 µM (active), the GI50 [8] was 0.0647 µM (active) and the GI50 [9] was 0.361 µM (active). The GI50 [10] was 0.467 µM (active), the GI50 [11] was 0.0853 µM (active) and the GI50 [12] was 22.9 µM (inactive). For the same compound, the GI50 [13] was 0.336 µM (active), the GI50 [14] was 0.288 µM (active) and the GI50 [15] was 0.501 µM (active). The GI50 [16] was 0.314 µM (active), the GI50 [17] was 0.541 µM (active) and the GI50 [18] was 0.378 µM (active). The GI50 [19] was 0.361 µM (active) and the GI50 [20] was 0.271 µM (active).

Reference: ChEMBL document CHEMBL1201862, “PubChem BioAssay data set” (2004)
